Data on 29 molecules can be found in ChEMBL document CHEMBL5550093, “Design, synthesis and antitumor activity of 2-substituted quinazoline-4-amine derivatives” (Bioorg Med Chem, 2024).

Molecules are shown by their SMILES.

The test system of data set [1] is PC-3. The data set is described as follows: Antiproliferative activity against human PC-3 cells at 5 uM incubated for 48 hrs by MTT assay relative to control. It is filed as functional. In general terms: Formazan colour is commonly taken as a measure of viable cells.
Data set [2] has as its system HeLa. As to the kind of experiment: Antiproliferative activity against human HeLa cells at 5 uM incubated for 48 hrs by MTT assay relative to control. It is filed as functional.
Data set [3] in a line: Antiproliferative activity against HEK293T cells at 5 uM incubated for 48 hrs by MTT assay relative to control. It is filed as toxicity, cell-based, HEK-293T. Conditions: human.
Data set [4] concerns A549. The data set is described as follows: Antiproliferative activity against human A549 cells at 5 uM incubated for 48 hrs by MTT assay relative to control. It is filed as functional.
For data set [5], the system named is K562. The data set is described as follows: Antiproliferative activity against human K562 cells at 5 uM incubated for 48 hrs by MTT assay relative to control. It is filed as functional.
Data set [6] deals with PC-3. The data set is described as follows: Antiproliferative activity against human PC-3 overexpressing WRN cells incubated for 48 hrs by MTT assay. It is filed as functional.
For data set [7], the system named is K562. As to the kind of experiment: Antiproliferative activity against human K562 cells incubated for 48 hrs by MTT assay. It is filed as functional, cell-based. Conditions: K562, 48 h.
Data set [8] relates to HeLa. As to the kind of experiment: Antiproliferative activity against human HeLa cells incubated for 48 hrs by MTT assay. It is filed as functional, cell-based.
For data set [9], the system named is A549. The data set is described as follows: Antiproliferative activity against human A549 cells incubated for 48 hrs by MTT assay. It is filed as functional, cell-based. Conditions: A549, 48 h.
Data set [10] can be described thus: Antiproliferative activity against HEK293T cells incubated for 48 hrs by MTT assay. It is filed as toxicity, cell-based, HEK-293T. Conditions: human.
The test system of data set [11] is PC-3. As to the kind of experiment: Antiproliferative activity against human PC-3 cells incubated for 48 hrs by MTT assay. It is filed as functional, cell-based. Conditions: for IC50: PC-3, 48 h.

On to `COC(=O)c1ccc(Nc2nc(C(=O)c3cccc(OC)c3)nc3ccccc23)cc1OC`, for which the inhibition at 5 µM in data set [1] was 48.3%; in data set [2], 37.7%; in data set [4], 40.1%; in data set [5] it was 9.5%. In data set [3], the inhibition at 48 h, 5 µM was 14.5%.

Consider `CCOC(=O)c1[nH]c(-c2ccc(Nc3nc(C(=O)c4ccccc4)nc4ccc(F)cc34)cc2)nc1C`, for which the inhibition at 5 µM in [1] stood at 44.5%; in [2] it was 34.9%; in data set [4] it was 40.6%; in [5], 55.4%. In addition, the IC20 in data set [6] came out at 6.6 µM; in [11] (PC-3, time 48 hrs), 7.51 µM. For the same molecule, the IC50 is 8 µM in data set [7], above 10 µM in data set [8], above 10 µM in data set [9] and 5.7 µM in data set [11]. For the same molecule, the inhibition at 48 h, 5 µM in [3] turned out to be 58.3%. Moreover, in data set [10], half-maximal inhibition (IC50 at 48 h) was put at 6.2 µM.

Turning to `COC(=O)c1ccc(N(C)c2nc(C(=O)c3ccccc3)nc3ccc(F)cc23)cc1`, the inhibition at 5 µM in [1] was determined as 39%; in [2], 16%; in data set [4], 46.1%; in [5], 25.9%. Besides, the inhibition at 48 h, 5 µM in [3] is 37.6%.

On to `COc1cccc(C(=O)c2nc(Nc3ccc(OC)c(OC)c3)c3ccccc3n2)c1`, for which the inhibition at 5 µM in data set [1] is -10.2%; in [2], 41.1%; in data set [4], 47.4%; in [5] it was 8.7%. Further, the inhibition at 48 h, 5 µM in [3] came out at 5.5%.

`COc1ccc(Nc2nc(C(=O)c3ccccc3)nc3ccc(F)cc23)cc1`: the inhibition at 5 µM stood at 3.4% in data set [1], 2% in data set [2], 2.9% in data set [4] and 0.5% in [5]. Moreover, the inhibition at 48 h, 5 µM in data set [3] turned out to be 2.4%.

`O=C(c1ccc(F)cc1)c1nc(Nc2ccc(N3CCNCC3)c(F)c2)c2ccccc2n1`: the inhibition at 5 µM in data set [1] is -9.6%; in data set [2], 11.3%; in data set [4], 4.1%; in [5], -10.7%. For the same molecule, the inhibition at 48 h, 5 µM in data set [3] turned out to be 9.5%.

Consider `CN(c1ccc(N2CCOCC2)cc1)c1nc(C(=O)c2ccccc2)nc2ccc(F)cc12`, for which the inhibition at 5 µM in data set [1] stood at 35.4%; in [2], 40.3%; in data set [4], 3.3%; in data set [5], 35.4%. Further, the inhibition at 48 h, 5 µM in data set [3] worked out at 34.5%.

As for `CC(C)[C@H](N)c1nc(N(C)c2ccc(OC(F)(F)F)cc2)c2ccccc2n1`, the inhibition at 5 µM stood at 7% in data set [1], 11.3% in data set [2], 56.2% in data set [4] and 81.4% in data set [5]. In addition, the inhibition at 48 h, 5 µM in data set [3] was 25.5%.

For `CC(C)(CN1C(=O)C(Cl)=C(Cl)C1=O)CN1C(=O)C(Cl)=C(Cl)C1=O`, the inhibition at 5 µM in data set [1] came out at 51.1%; in data set [2], 69.1%; in data set [4], 7.3%; in [5], 35%. In addition, the IC50 in data set [7] was determined as 1.8 µM; in data set [8] it was 2.7 µM; in [9], 3.4 µM; in [11], 6.8 µM. In addition, the inhibition at 48 h, 5 µM in [3] turned out to be 71%. This molecule had an IC50 at 48 h in data set [10] of 3.1 µM.

As for `C=CC(=O)Nc1cccc(Nc2nc(C(=O)c3ccccc3)nc3ccc(F)cc23)c1`, the inhibition at 5 µM stood at 9.6% in data set [1], 7% in [2], 7.9% in data set [4] and 8.9% in data set [5]. For the same molecule, in data set [3], the inhibition at 48 h, 5 µM is 4.8%.

As to `COC(=O)c1ccc(Nc2nc(C(=O)c3ccc(F)cc3)nc3ccccc23)cc1`, the inhibition at 5 µM in data set [1] was found to be 19%; in [2], 37.8%; in data set [4], 35.7%; in [5], 6.8%. In addition, the inhibition at 48 h, 5 µM in [3] turned out to be 18.9%.

On to `Cc1ccc(Nc2nc(C(=O)c3ccc(F)cc3)nc3ccccc23)c(C(=O)O)c1`, for which the inhibition at 5 µM was -4.2% in data set [1], 42.7% in data set [2], 29.9% in data set [4] and 6.5% in data set [5]. For the same molecule, the inhibition at 48 h, 5 µM in data set [3] turned out to be 20.6%.

Regarding `COc1cc(N(C)c2nc(C(=O)c3ccc(F)cc3)nc3ccccc23)ccc1C(=O)O`, the inhibition at 5 µM in data set [1] is -8.9%; in data set [2] it was 12.3%; in data set [4], 5.1%; in [5] it was 6.4%. Moreover, the inhibition at 48 h, 5 µM in data set [3] amounted to 5.3%.

In the case of `O=C(c1ccccc1)c1nc(Nc2ccc(N3CCOCC3)cc2)c2cc(F)ccc2n1`, the inhibition at 5 µM turned out to be 3.1% in [1], 31.1% in data set [2], 39.3% in [4] and 28.1% in data set [5]. Besides, in data set [3], the inhibition at 48 h, 5 µM is 29.7%.

Turning to `CC(C)[C@H](N)c1nc(Nc2ccc(N3CCOCC3)cc2)c2ccccc2n1`, the inhibition at 5 µM is 2.1% in data set [1], 6.5% in [2], -0.7% in [4] and 8.2% in data set [5]. Further, the inhibition at 48 h, 5 µM in data set [3] was 1.2%.

With `COc1cc(N2CCNCC2)ccc1N(C)c1nc(C(=O)c2ccc(F)cc2)nc2ccccc12`, the inhibition at 5 µM is 17.3% in data set [1], 5.2% in [2], 11.9% in data set [4] and 3.3% in [5]. In addition, in data set [3], the inhibition at 48 h, 5 µM was 3.2%.

Regarding `COc1cc(N2CCNCC2)ccc1Nc1nc(C(=O)c2ccc(F)cc2)nc2ccccc12`, the inhibition at 5 µM was 9% in data set [1], 1.7% in data set [2], -0.5% in [4] and -6.6% in data set [5]. Moreover, the inhibition at 48 h, 5 µM in [3] came out at 5.8%.

In the case of `COc1ccc(N(C)c2nc(C(=O)c3ccccc3)nc3ccc(F)cc23)cc1`, the inhibition at 5 µM was 40.9% in data set [1], 37.8% in [2], 25% in data set [4] and 24.1% in data set [5]. Also, the inhibition at 48 h, 5 µM in data set [3] was determined as 39.3%.

On to `COc1ccc(Nc2nc(C(=O)c3cccc(OC)c3)nc3ccccc23)cc1`, for which the inhibition at 5 µM is 46.5% in [1], 40.1% in [2], 44.3% in data set [4] and 25.2% in data set [5]. Moreover, in data set [3], the inhibition at 48 h, 5 µM is 4.7%.

With `O=C(c1ccccc1)c1nc(Nc2ccc(OC(F)(F)F)cc2)c2cc(F)ccc2n1`, the inhibition at 5 µM in data set [1] came out at 47.6%; in data set [2] it was 27.8%; in data set [4] it was 42.2%; in data set [5], 19.3%. For the same molecule, in data set [3], the inhibition at 48 h, 5 µM came to 23%.

For `COc1cccc(C(=O)c2nc(N(C)c3ccc(OC)c(OC)c3)c3ccccc3n2)c1`, the inhibition at 5 µM was determined as 25.3% in [1], 47.1% in data set [2], 45.4% in data set [4] and 38.8% in data set [5]. Moreover, the inhibition at 48 h, 5 µM in data set [3] came out at 46.3%.

Turning to `COC(=O)c1ccc(Nc2nc(C(=O)c3ccc(F)cc3)nc3ccccc23)cc1OC`, the inhibition at 5 µM in data set [1] was -5.7%; in data set [2] it was 8.2%; in data set [4], 8.5%; in data set [5], 8.5%. Besides, the inhibition at 48 h, 5 µM in data set [3] is 4.6%.

For `COc1cccc2c1C(=O)c1c(O)c3c(c(O)c1C2=O)C[C@@](O)(C(=O)CO)C[C@@H]3O[C@H]1C[C@H](N)[C@H](O)[C@H](C)O1` [DOXORUBICIN], the inhibition at 5 µM stood at 80.1% in data set [1], 71.7% in data set [2], 30.1% in data set [4] and 61% in [5]. Also, the results for the IC50 in data set [7] and in data set [9] were 2.3 µM and 4.4 µM, respectively. The inhibition at 48 h, 5 µM in data set [3] was found to be 81.1%. The molecule further came in with an IC50 at 48 h in data set [10] of 2.4 µM.

`CN(c1ccc(OC(F)(F)F)cc1)c1nc(C(=O)c2ccccc2)nc2ccc(F)cc12`: the inhibition at 5 µM in [1] was 10.4%; in data set [2] it was -3.1%; in [4], 18.4%; in data set [5], -2.2%. Besides, in data set [3], the inhibition at 48 h, 5 µM was 1.3%.

Consider `CCOC(=O)c1c(C)nc(-c2ccc(N(C)c3nc(C(=O)c4ccccc4)nc4ccc(F)cc34)cc2)n1C`, for which the inhibition at 5 µM came out at 1% in data set [1], 4% in [2], 1.8% in data set [4] and 30.1% in [5]. Also, the inhibition at 48 h, 5 µM in [3] came out at 0.3%.

For the molecule `CC(C)[C@H](N)c1nc(Nc2ccc(OC(F)(F)F)cc2)c2ccccc2n1`, the inhibition at 5 µM in data set [1] came out at 13.3%; in [2], 2.6%; in [4], 11.4%; in [5], 7.2%. For the same molecule, in data set [3], the inhibition at 48 h, 5 µM came out at 4.4%.

Consider `COC(=O)c1ccc(N(C)c2nc(C(=O)c3ccc(F)cc3)nc3ccccc23)cc1OC`, for which the inhibition at 5 µM in [1] stood at 43.6%; in data set [2], 31.2%; in data set [4], 21.9%; in data set [5] it was 40.2%. Also, the inhibition at 48 h, 5 µM in data set [3] stood at 38%.

Turning to `COc1ccc(Nc2nc([C@@H](N)C(C)C)nc3ccccc23)cc1`, the inhibition at 5 µM is -4.8% in [1], 9.3% in data set [2], 3.4% in data set [4] and 0.8% in data set [5]. Moreover, the inhibition at 48 h, 5 µM in data set [3] was determined as 8.4%.

Turning to `COC(=O)c1ccc(Nc2nc(C(=O)c3ccccc3)nc3ccc(F)cc23)cc1`, the inhibition at 5 µM turned out to be 29.3% in data set [1], 0.8% in data set [2], 17.7% in [4] and 19.5% in data set [5]. In addition, the inhibition at 48 h, 5 µM in data set [3] came to 11.1%.

As usually defined, the inhibition is the change of the read-out against control, counted positive when it falls. The IC20 is the concentration at which the effect reaches the 20% level. Read a low IC20 as greater potency. As a reminder, the IC50 is the concentration that gives 50% inhibition. Read a low IC50 as greater potency.
